Experimental data published in ChEMBL document CHEMBL3301361, “Experimental in vitro DMPK and physicochemical data on a set of publicly disclosed compounds”.

Test: physchem
Details: octan-1-ol/water

| Structure (SMILES) | logD (pH 7.4, LogD7.4) | logD (pH 7.4) |
| --- | --- | --- |
| COc1ccc(COc2ccc(Cc3cnc(N)nc3N)cc2OC)cc1 [GW632580X] | 2.27 |  |
| CN1C(=O)NC(=O)C(C)(C2=CCCCC2)C1=O (stereo unspecified) [HEXOBARBITAL] |  | 1.5 |
| CN1CCCN(C(c2ccccc2)c2ccc(Cl)cc2)CC1 (stereo unspecified) [HOMOCHLORCYCLIZINE] | 2.36 |  |
| CCN(CCO)CCCC(C)Nc1ccnc2cc(Cl)ccc12 (stereo unspecified) [HYDROXYCHLOROQUINE] | 0.77 |  |
| OCCOCCN1CCN(C(c2ccccc2)c2ccc(Cl)cc2)CC1 (stereo unspecified) [HYDROXYZINE] | 3.08 |  |
| CN(C(=O)Cc1ccc(Cl)c(Cl)c1)[C@H](CN1CCCC1)c1ccccc1 [ICI-199,441] |  | 3.42 |
| COc1cc(C(=O)NS(=O)(=O)c2ccccc2)ccc1Cn1ncc2ccc(NC(=O)OC3CCCC3)cc21 [ICI-198615] | 1.8 |  |
| Oc1ccc(C2=Cc3ccc(O)cc3OC2)cc1 [IDRONOXIL] | 3.8 |  |
| Oc1c(I)cc(I)c2cccnc12 [IODOQUINOL] | 2.19 |  |
| CC(C)NC[C@@H](C(=O)N1CCN(c2ncnc3c2[C@H](C)C[C@H]3O)CC1)c1ccc(Cl)cc1 [IPATASERTIB] | 1.3 |  |
| CN(C)CCCn1c2c(c3ccccc31)CCCCCC2 [IPRINDOLE] | 2.96 |  |
| CC(C)NNC(=O)c1ccncc1 [IPRONIAZID] | 0.33 |  |
| NNC(=O)c1ccncc1 [ISONIAZID] | -0.57 |  |
| c1ccc2cnccc2c1 [ISOQUINOLINE] | 1.6 |  |
| CC(C)[C@@H](CN1CC[C@@](C)(c2cccc(O)c2)[C@@H](C)C1)NC(=O)[C@H]1Cc2ccc(O)cc2CN1 [JDTIC] |  | 2.39 |
| O=C(c1ccccc1)c1ccc2n1CCC2C(=O)O (stereo unspecified) [KETOROLAC] | -0.93 |  |
| CCCc1c(OCCCSc2ccc(CC(=O)O)cc2Cl)ccc2c(CC)noc12 [L-165461] | 3.92 |  |
| c1ccc([C@H]2CN3CCSC3=N2)cc1 [LEVAMISOLE] | 0.81 |  |
| COc1ccc2c(c1)N(C[C@H](C)CN(C)C)c1ccccc1S2 [LEVOMEPROMAZINE] | 2.99 |  |
| CC1(C)Cc2c(-c3ccccc3)c(-c3ccc(Cl)cc3)c(CC(=O)O)n2C1 [LICOFELONE] | 3.07 |  |
| O=c1[nH]c2cc(Cl)c(Cl)c([N+](=O)[O-])c2[nH]c1=O [LICOSTINEL] | 0.21 |  |
| CC(Oc1c(Cl)cccc1Cl)C1=NCCN1 (stereo unspecified) [LOFEXIDINE] | 0.48 |  |
| CC(C)(N)C(=O)N[C@H](Cc1c[nH]c2ccccc12)C(=O)N[C@H](Cc1c[nH]c2ccccc12)NC=O [MACIMORELIN] | 1 |  |

| Structure (SMILES) | logD (pH 7.4, LogD7.4) | logD (pH 7.4) |
| --- | --- | --- |
| CNC1(C)C2CCC(C2)C1(C)C (stereo unspecified) [MECAMYLAMINE] | -0.84 |  |
| Cc1ccc(Cl)c(Nc2ccccc2C(=O)O)c1Cl [MECLOFENAMIC ACID] | 2.33 |  |
| CC(=O)[C@H]1CC[C@H]2[C@@H]3C[C@H](C)C4=CC(=O)CC[C@]4(C)[C@H]3[C@@H](O)C[C@]12C [MEDRYSONE] | 3.25 |  |
| CCC1(c2ccccc2)NC(=O)N(C)C1=O (stereo unspecified) [MEPHENYTOIN] | 1.59 |  |
| CCC1(c2cccc(O)c2)CCCCN(C)C1 (stereo unspecified) [MEPTAZINOL] |  | 0.8 |
| CN1CCCCC1CCN1c2ccccc2Sc2ccc([S+](C)[O-])cc21 (stereo unspecified) [MESORIDAZINE] | 1.6 |  |
| COc1ccccc1OCC(O)COC(N)=O (stereo unspecified) [METHOCARBAMOL] | 0.36 |  |
| Cc1ccccc1N1C(=O)c2cc(S(N)(=O)=O)c(Cl)cc2NC1C (stereo unspecified) [METOLAZONE] | 1.64 |  |
| CN1CCN2c3ncccc3Cc3ccccc3C2C1 (stereo unspecified) [MIRTAZAPINE] | 2.82 |  |
| NC(=O)C[S+]([O-])C(c1ccccc1)c1ccccc1 (stereo unspecified) [MODAFINIL] |  | 1.12 |
| CCc1c(C)[nH]c2c1C(=O)C(CN1CCOCC1)CC2 (stereo unspecified) [MOLINDONE] | 1.54 |  |
| COc1ccc2cc(CCC(C)=O)ccc2c1 [NABUMETONE] | 3.06 |  |
| CCn1cc(C(=O)O)c(=O)c2ccc(C)nc21 [NALIDIXIC ACID] |  | -0.1 |
| Oc1ccc2c3c1O[C@H]1c4[nH]c5ccccc5c4C[C@@]4(O)[C@@H](C2)N(CC2CC2)CC[C@]314 [NALTRINDOLE] |  | 2.7 |
| O=C1C=CC(=O)c2c(O)ccc(O)c21 [NAPHTHAZALIN] |  | 1.91 |
| CC1(C)CCC(NC(=O)[C@@H](N)CCC(=O)O)CC1 [NEBOGLAMINE] |  | -0.27 |
| Cc1cnc(NC(=O)c2cc(Oc3cnc(C(=O)N(C)C)nc3)c3cc(C)oc3c2)cn1 [NERIGLIATIN] | 2.1 |  |
| CN1CCC[C@H]1c1cccnc1 [NICOTINE] |  | 0.5 |
| O=C(O)c1cccnc1Nc1cccc(C(F)(F)F)c1 [NIFLUMIC ACID] | 1 |  |
| NC(=O)c1cc([N+](=O)[O-])cc([N+](=O)[O-])c1 [NITROMIDE] |  | 0.81 |
| CC(C)Oc1cccc(CC(=O)N2CCC[C@](CC[N+]34CCC(c5ccccc5)(CC3)CC4)(c3ccc(Cl)c(Cl)c3)C2)c1 [NOLPITANTIUM] |  | 1.23 |
| Oc1ccc2c3c1O[C@H]1c4[nH]c5c(c4C[C@@]4(O)[C@@H](C2)N(CC2CC2)CC[C@]314)C[C@@]1(O)[C@H]2Cc3ccc(O)c4c3[C@@]1(CCN2CC1CC1)[C@H]5O4 [NORBINALTORPHIMINE] |  | 1.41 |
| CCn1cc(C(=O)O)c(=O)c2cc(F)c(N3CCNCC3)cc21 [NORFLOXACIN] | -0.87 |  |
